Where “and” joins values, the source holds several entries; their conditions need not be identical. Equal entries are not always repeated. Marks after values point to notes of the source that are not given here.
Experiments:
S. typhimurium 14038 = test: Salmonella invasion (gentamicin protection assay) in Caco-2 monolayers; format: cell-based, Salmonella typhimurium; conditions: for cytokine-induced salmonella invasion: 10 and 25 μM, vs cytokines only; for Salmonella CFU/ml: Caco-2 cells, triplicate
Description: FKK compounds were tested for their ability to prevent Salmonella invasion in vitro in non‐inflamed and inflamed cell cultures. Overnight cultures of S. typhimurium 14038 were diluted to OD600 0.01 and injected into with HIOs or immersed over Caco‐2 monolayers for 1 h at 37°C. The invasive ability of Salmonella was assessed using the gentamicin protection assay (Gagnon et al, 2013). Bacterial adhesion scenarios to the Caco‐2 surface were set up as described above. Non‐adhered bacteria were removed by washing twice in PBS, followed by incubation with 1 ml gentamicin (150 μg/ml in DMEM) for 1 h at 37°C to kill the adhered extracellular bacteria. Dead bacteria were removed by washing twice in PBS, followed by incubation with 500 μl 0.1% Triton X‐100 for 15 min at 37°C to lyse the HIOs and Caco‐2, and release the intracellular (invaded) bacteria. Serial fold dilutions and plating were then employed to determine CFU/ml. We normalized to total protein using Bradford assay.

NF-κB [1] = test: NF-κB nuclear translocation (immunofluorescence) in Caco-2 cells; format: cell-based, human; conditions: 25 μM, with cytokines, 2 or 12 h
Description: (§1) HIOs and Caco‐2 were exposed to a pro‐inflammatory cytokine cocktail (10 ng/ml IFN‐γ, 10 ng/ml TNF‐α, 50 ng/ml IL‐1β) for 2–24 h in combination with DMSO or FKK5 and FKK6 compounds (10 and 25 μm). Relative mRNA levels of IL‐8 and IL‐6 were determined using quantitative real‐time PCR, with normalization to GAPDH. RNA was isolated using an RNeasy Mini Kit (Qiagen) as per the manufacturer's instructions. On column DNase (Qiagen) was used to remove any contaminating DNA. Next, cDNA was formed using iScript cDNA Synthesis Kit (Bio‐Rad) and 100 ng RNA. qRT–PCR was performed with SsoAdvanced Universal SYBR Green Kit (Bio‐Rad). The following primers were used: IL‐8 Forward: […]; IL‐8 Reverse: […]; IL‐6 Forward: […]; IL‐6 Reverse: […]; GAPDH Forward: […]; GAPDH Reverse: […]. For immunofluorescent staining of NF‐ĸB translocation to the cell nucleus, HIOs and Caco‐2 cell monolayers were fixed in 4% formaldehyde (in 1 × PBS) overnight at 4°C. The formaldehyde was removed by washing with 1 × PBS, and an antigen retrieval step was performed by incubating in 10 mM sodium citrate buffer in a vegetable steamer for 20 min. The samples were then blocked with normal donkey serum (10% in PBS with 0.3% Triton X‐100) for 1 h. […]

NF-κB [2] = test: NF-κB nuclear translocation (immunofluorescence) in human intestinal organoids; format: cell-based; conditions: 25 μM, with cytokines
Description: as §1

hPXR = molecular target: T1, hPXR (Homo sapiens, UniProt O75469); test: hPXR TR-FRET competitive binding assay (LanthaScreen); conditions: for 520/495 TR-FRET ratio: replicate wells; for TR-FRET signal (Fig 1e): each column a repeat
T1 sequence (O75469 111-434 limits assumed): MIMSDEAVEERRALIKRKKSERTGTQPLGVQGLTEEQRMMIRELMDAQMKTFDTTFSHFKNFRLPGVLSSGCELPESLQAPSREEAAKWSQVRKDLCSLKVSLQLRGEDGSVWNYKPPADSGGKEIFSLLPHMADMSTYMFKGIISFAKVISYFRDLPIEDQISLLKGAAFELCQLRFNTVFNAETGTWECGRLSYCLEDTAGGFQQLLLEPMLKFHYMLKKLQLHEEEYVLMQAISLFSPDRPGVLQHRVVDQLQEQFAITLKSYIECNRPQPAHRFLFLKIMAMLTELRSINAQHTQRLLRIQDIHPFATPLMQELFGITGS
Description: All PXR‐binding assays were performed as two independent experiments, each with a minimum of four replicates. Final IC50 was obtained by processing the data with GraphPad Prism 6 using standard curve interpolation (sigmoidal, 4PL, variable slope).

[3] = compound 10µm, no cytokines, 6 hr
[4] = compound 10µm, no cytokines, 12 hr
[5] = compound 25µm, no cytokines, 6 hr
[6] = cytokines + compound 10µm, 6 hr
[7] = cytokines + compound 25µm, 6 hr
[8] = cytokines + compound 25µm, 12 hr

SMILES	cytokine-induced salmonella invasion (S. typhimurium 14038)	Salmonella CFU/ml (S. typhimurium 14038; [3])	Salmonella CFU/ml (S. typhimurium 14038; [4])	Salmonella CFU/ml (S. typhimurium 14038; [5])	Salmonella CFU/ml (S. typhimurium 14038; [6])	Salmonella CFU/ml (S. typhimurium 14038; [7])	Salmonella CFU/ml (S. typhimurium 14038; [8])	salmonella invasion, compound alone (S. typhimurium 14038; no cytokines)	NF-κB localisation (NF-κB [1])	NF-κB localisation (NF-κB [2])	520/495 TR-FRET ratio (hPXR; 0.001 uM)	520/495 TR-FRET ratio (hPXR; 0.005 uM)	520/495 TR-FRET ratio (hPXR; 0.01 uM)	520/495 TR-FRET ratio (hPXR; 0.05 uM)	520/495 TR-FRET ratio (hPXR; 0.1 uM)	520/495 TR-FRET ratio (hPXR; 0.5 uM)	520/495 TR-FRET ratio (hPXR; 1 uM)	520/495 TR-FRET ratio (hPXR; 5 uM)	520/495 TR-FRET ratio (hPXR; 10 uM)	520/495 TR-FRET ratio (hPXR; 25 uM)	also measured
O=C(c1ccncc1)c1cc2ccccc2n1S(=O)(=O)c1ccccc1 [FKK5, (1-(phenylsulfonyl)-1H-indol-2-yl)(pyridin-4-yl)methanone]	significantly decreased	5980 CFU/ml and 4820 CFU/ml and 5870 CFU/ml	5920 CFU/ml and 4240 CFU/ml and 5520 CFU/ml	4940 CFU/ml and 4950 CFU/ml and 4400 CFU/ml	5800 CFU/ml and 5710 CFU/ml and 4100 CFU/ml	3700 CFU/ml and 3900 CFU/ml and 3270 CFU/ml	3040 CFU/ml and 3240 CFU/ml and 2560 CFU/ml	No significant effect	increased cytoplasmic	increased cytoplasmic	0.6965 and 0.4501 and 0.6299 and 0.6424	0.7274 and 0.6833 and 0.7094 and 0.6960	0.5474 and 0.5649 and 0.4572 and 0.5311	0.6957 and 0.6419 and 0.6716 and 0.6881	0.6678 and 0.6931 and 0.6595 and 0.6666	0.6903 and 0.6366 and 0.6178 and 0.6056	0.6447 and 0.5990 and 0.6565 and 0.5995	0.4264 and 0.3946 and 0.3906 and 0.3944	0.2760 and 0.2201 and 0.3383 and 0.4401	0.2211 and 0.2334 and 0.2644 and 0.2449	Salmonella CFU/ml (S. typhimurium 14038; cytokines + compound 10µm, 12 hr): 2240 CFU/ml and 4480 CFU/ml and 4320 CFU/ml; TR-FRET signal (Fig 1e) (hPXR; Drug Conc 5 nM): 0.7094 and 0.696 and 0.7274 and 0.6833; TR-FRET signal (Fig 1e) (hPXR; Drug Conc 10 nM): 0.4572* and 0.5311* and 0.5474* and 0.5649*; TR-FRET signal (Fig 1e) (hPXR; Drug Conc 1 uM): 0.5995 and 0.6565 and 0.599 and 0.6447; TR-FRET signal (Fig 1e) (hPXR; Drug Conc 5 uM): 0.3906 and 0.3944 and 0.4264 and 0.3946; TR-FRET signal (Fig 1e) (hPXR; Drug Conc 25 uM): 0.2644 and 0.2449 and 0.2211 and 0.2334; TR-FRET signal (Fig 1e) (hPXR; Drug Conc 2,5 uM): 0.4667 and 0.4734 and 0.4777 and 0.4842
C#CCC(O)(c1ccncc1)c1cc2ccccc2n1S(=O)(=O)c1ccccc1 (stereo not shown) [FKK6]	significantly decreased	3008 CFU/ml and 3000 CFU/ml and 1800 CFU/ml	1840 CFU/ml and 3520 CFU/ml and 2960 CFU/ml	2076 CFU/ml and 2290 CFU/ml and 2980 CFU/ml	2276 CFU/ml and 2820 CFU/ml and 1500 CFU/ml	1940 CFU/ml and 1870 CFU/ml and 1600 CFU/ml	2520 CFU/ml and 1360 CFU/ml	No significant effect	increased cytoplasmic	increased cytoplasmic	0.4136 and 0.4057 and 0.5035 and 0.4539	0.6293 and 0.6196 and 0.5845 and 0.6237	0.6566 and 0.5913 and 0.6411 and 0.6166	0.6583 and 0.5743 and 0.6162 and 0.6466	0.7390 and 0.6524 and 0.6459 and 0.6637	0.5359 and 0.4958 and 0.5519 and 0.5445	0.5035 and 0.4918 and 0.5332 and 0.5717	0.3896 and 0.3581 and 0.3234 and 0.3736	0.2832 and 0.3381 and 0.2857 and 0.3170	0.3206 and 0.2975 and 0.3225 and 0.3589	Salmonella CFU/ml (S. typhimurium 14038; compound 25µm, no cytokines, 12 hr): 1360 CFU/ml and 2480 CFU/ml and 2320 CFU/ml; TR-FRET signal (Fig 1e) (hPXR; Drug Conc 0,25 uM): 0.6324 and 0.6211 and 0.6238 and 0.5836; TR-FRET signal (Fig 1e) (hPXR; Drug Conc 1 nM): 0.4136* and 0.4057* and 0.5035* and 0.4539*; TR-FRET signal (Fig 1e) (hPXR; Drug Conc 5 nM): 0.6293 and 0.6196 and 0.5845 and 0.6237; TR-FRET signal (Fig 1e) (hPXR; Drug Conc 10 nM): 0.6566 and 0.5913 and 0.6411 and 0.6166; TR-FRET signal (Fig 1e) (hPXR; Drug Conc 50 nM): 0.6583 and 0.5743 and 0.6162 and 0.6466; TR-FRET signal (Fig 1e) (hPXR; Drug Conc 10 uM): 0.2832 and 0.3381 and 0.2857 and 0.317; TR-FRET signal (Fig 1e) (hPXR; Drug Conc 25 uM): 0.3206 and 0.2975 and 0.3225 and 0.3589

Reference: publication PMC7136958, “Targeting the pregnane X receptor using microbial metabolite mimicry” (EMBO Molecular Medicine, 2020)
